One experiment concerns Plasma-LDL. As to the kind of experiment: Stabilisation of plasma LDL against Cu(II) oxidation: prolongation of the lag phase of diene formation (A 234). In kind it is biochemical, human. Conditions: 3 Moleküle Testsubstanz pro LDL-Partikel; LDL 125 »g Protein/ml, 10 »M CuCl₂, pH 8, 42° C. The protocol: (§1) e) In-vitro-Wirkung der Verbindungen der Formel I und I' Hemmung der Cholesterinesterbildung in Makrophagen (nach Huber et al. (1990) Free Rad. Res. Comms. 8, 167-173): Humanplasma-LDL wurde durch sequenzielle Ultrazentrifugation bei präselektierten Dichten aus dem Plasma gesunder männlicher Nichtraucher isoliert und für 5 h bei 37° C in F-10 Medium + 1 »M Cu(II) zur Depletion seiner lipophilen Antioxidantien inkubiert. Die Bildung von Cholesterinestern in P 388 D.1 Makrophagen unter Einfluß von konditioniertem human Plasma-LDL wurde nach 18 h Inkubation der Zellen (2 x 10⁶/ml) in F-10 Medium + 1 » M Cu(II) + 50 »g/ml LDL + 5 % FCS nach Extraktion der Neutralfette dünnschichtchromatographisch gemessen. […] Stabilisierung von Plasma-LDL (nach Huber et al. (1990) Free Rad. Res. Comms. 8, 167-173): LDL (125 »g Protein/ml) wurde in 20 mM Tris-Cl pH 8, 150 mM NaCl, 10 »M CuCl₂ mit und ohne Testverbindung (gelöst in Äthanol, Äthanolendkonzentration 0,5 %) bei 42° C oxidiert. Es wurden jeweils 3 Moleküle Testsubstanz pro LDL-Partikel eingesetzt. Die Oxidation wurde kontinuierlich photometrisch bei A 234 durch die Messung der Dienbildung verfolgt. Die sogenannte "lag Phase" ist als dasjenige Zeitintervall definiert, das sich aus dem Schnittpunkt der Tangente der Kurve während der Propagationsreaktion der Lipidperoxidation und er Zeitachse ergibt. […] Hemmung der Sojabohnenlipoxygenase (15-Lipoxygenase) am LDL-Substrat (nach Cathcart et al. (1991) J. Lipid Res. 32, 63-70): LDL (100 »g Protein/ml) wurde in 20 mM Tris-Cl pH 8,3, 150 mM NaCl mit und ohne Testsubstanz (gelöst in Äthanol, Endkonzentration des Äthanol 0,5 %) mit 5000 U/2ml Sojabohnen-Lipoxygenase (Sigma, München) bei 37° C inkubiert: Die Oxidation wurde durch Messung der Diene kontinuierlich bei A 234 verfolgt. Als IC₅₀-Wert wird diejenige Konzentration der Testverbindung angegeben, die zur Halbierung der im Testansatz über die Zeit linearen Dienbildung führt.

A further experiment has as its system P 388 D.1 Makrophagen. As to the kind of experiment: Inhibition of cholesterol ester formation in macrophages under conditioned human plasma LDL (after Huber et al. 1990). Conditions: for inhibition at 10 µM / IC50: Mus musculus, P388D1, 18 h; for inhibition at 10 µM: read-out: Hemmung der Cholesterinesterbildung in Macrophagen (P388D.1) 10 »M %; for IC50: read-out: Hemmung der Cholesterinesterbildung in Macrophagen (P388D.1) IC₅₀. Format: cell-based. How it is done: as §1

Experiment [1] concerns Ratten mit diätetisch induzierter Hypercholesterinämie. In words: Dose-dependent effect on serum cholesterol in rats with diet-induced hypercholesterolaemia. In kind it is in vivo, SD Ratten. Conditions: for S-Cholesterin: 4 days on 2 % Cholesterin/0,2 % Cholsäure diet, measured day 5, Mittelwerte +/- SEM, n=6; for % Kontrollen: S-Cholesterin as % of controls (dose 0 = 100). From the text: Die Verbindungen der Formel I bzw. I' sind Antioxidantien-Sulfonamidanaloga, die Hemmstoffe der Cholesterinesterbildung in der Arterienwand zur Behandlung der Arteriosklerose darstellen. a) Die Zytogenese der Atheromatose Hypercholesterinämie und Syndrome von Hypercholesterinämie/Hypertriglyceridämie Syndrome sind Risikofaktoren für die vorzeitige Arteriosklerose. In der Pathogenese der arteriosklerotischen Läsion selbst spielt die oxidative Modifikation von Lipoproteinen in der Arterienwand eine wichtige Rolle. Sie führt zur Freisetzung von chemotaktisch wirksamen Mediatoren und zur Wanderung von makrophagozytären Zellen aus dem Blut in die Arterienwand. In der Gefäßwand nehmen Makrophagen besonders intensiv oxidativ verändertes low-density lipoprotein (LDL) unreguliert auf. Die damit verbundene Erhöhung des Cholesterininfluxes und die Belastung des zellulären Stoffwechsels führt zu einem Anstieg des intrazellulären Cholesterins, einer Steigerung der Reacylierung des Cholesterins und Speicherung der Cholesterinester, die wiederum zur Ausbildung großer cytoplasmatischer Cholesterinesterdepots und zur Degeneration dieser Makrophagen ("Schaumzellen") führen. Die Schaumzellen sind das zelluläre Substrat des Atheroms und verursachen die makroskopisch sichtbaren Fettstreifen, aus denen sich dann die fibrösen Plaqueläsionen bei Fortschreiben der Erkrankung entwickeln. b) Die Grundlagen für eine antiatherosklerotische Therapie bei Fettstoffwechselstörungen Eine an die Kausalzusammenhänge orientierte antiatherosklerotische Therapie fußt idealerweise auf mindestens drei Säulen: 1. einer Senkung pathologisch erhöhter Lipidspiegel im Plasma durch Diät und/oder Pharmaka, 2. einem wirksamen Antioxidantienschutz besonders des stark atherogenen LDL zur Verminderung des oxidativen LDL-Katabolismus im Atherom und 3. einer Hemmung der Cholesterinesterbildung in den Schaumzellen der fettstreifigen Frühläsionen. Einige Senker des Serum-Cholesterins wirken, indem sie den hepatischen Pool des freien Cholesterins kontrahieren und den Katabolismus des atherogenen LDL-Cholesterins erhöhen: Ionenaustauscher interferieren z. B. mit dem enterhepatischen Cholesterinkreislauf, führen zur Depletion der Gallensäuren in den Hepatozyten und stimulieren die LDL-Cholesterinaufnahme aus dem Plasmakompartment durch eine vermehrte hepatische Aufnahme von Cholesterin über LDL und die hepatischen Apo B,E-Rezeptoren (LDL-Rezeptoren). Ähnlich wirken die Cholesterinsynthese-blocker, z. B. Lovastatin. Sie vermindern das hepatische Cholesterin und bedingen ebenfalls eine gesteigerte Aufnahme von LDL-Cholesterin aus dem Plasma über eine Vermehrung der LDL-Rezeptoren. Auch Hemmer der Cholesterinresorption bedingen eine Absenkung des hepatischen Cholesterinpools, indem sie die exogene diätetische Belastung durch Cholesterin reduzieren. Beispiele hierfür sind die sogenannten Acyl CoA: cholesterinacyltransferase (ACAT)-Hemmer, die in den Enterozyten den Cholesterinefflux via Chylomikronen durch die Hemmung der Veresterung freien Cholesterins unterbinden. In der Leber wird durch diese Hemmer der Cholesterinesterbildung zusätzlich das freie Cholesterin erhöht und die endogene hepatische Cholesterinbiosynthese durch Endprodukt-Hemmung indirekt gehemmt. In den Schaumzellen des Atheroms wird durch die Blockade der Cholesterinesterbildung erhöht freies Cholesterin in den "Reverse Cholesterol Transport pathway" der high-density lipoproteins (HDL) eingebracht, daraus entsteht ein zusätzlicher direkter antiatherogener Effekt. Antioxidantien sind Substanzen, die - allgemein gesehen - eine erhebliche Verzögerung der oxidativen Vorgänge bei einem zu schützenden Produkt bewirken. […] Es ist ein sterisch gehindertes Alkylphenol, das im LDL akkumuliert. […] Methode: 220-250 g schwere SD Ratten erhielten eine Standarddiät, die mit 2 % Cholesterin/0,2 % Cholsäure angereichert wurde, über 4 Tage. […]

This note sets out measurements from patent EP0558569B1, “MEDICAMENTS CONTAINING SULPHONAMIDES, NOVEL SULPHONAMIDES AND PROCES FOR PRODUCING THEM” (BOEHRINGER MANNHEIM GMBH, priority 1990, dated 1992).

Regarding `CC(C)(C)c1cc(CNS(=O)(=O)c2ccc(Cl)cc2)cc(C(C)(C)C)c1O` [Beispiel 2, 4-Chlorbenzolsulfo-(3,5-di-tert.butyl-4-hydroxy)benzylamid], the “Stabilisierung von Plasma LDL: Verlängerung d. "lag-Phase" %” value in the experiment with Plasma-LDL worked out at 44%. For the same compound, in the experiment with P 388 D.1 Makrophagen, the inhibition at 10 µM is 78.7% and the IC50 turned out to be 2500 nM.
In the case of `CN(Cc1cc(C(C)(C)C)c(O)c(C(C)(C)C)c1)S(=O)(=O)c1ccc(Cl)cc1` [Beispiel 3, N-Methyl-4-chlorbenzolsulfo-(3,5-di-tert.butyl-4-hydroxy)benzylamid], the “Stabilisierung von Plasma LDL: Verlängerung d. "lag-Phase" %” value in the experiment with Plasma-LDL was determined as 40%. For the same compound, in the experiment on P 388 D.1 Makrophagen, the inhibition at 10 µM is 54.9%.
For the compound `CC(C)(C)c1cc(CCCNS(=O)(=O)c2ccc(Cl)cc2)cc(C(C)(C)C)c1O` [Beispiel 4b], in the experiment on P 388 D.1 Makrophagen, the inhibition at 10 µM came to 49.2%.
As to `CC(C)c1cc(C(C)C)c(S(=O)(=O)NCc2cc(C(C)(C)C)c(O)c(C(C)(C)C)c2)c(C(C)C)c1` [Beispiel 5.10, 2,4,6-tris-Isopropyl-benzolsulfo-(3,5-di-tert.butyl-4-hydroxy)benzylamid], the “Stabilisierung von Plasma LDL: Verlängerung d. "lag-Phase" %” value with Plasma-LDL was 99%. In addition, in the experiment on P 388 D.1 Makrophagen, the inhibition at 10 µM worked out at 60.3% and the IC50 turned out to be 7000 nM.
Regarding `CC(C)c1cc(C(C)C)c(S(=O)(=O)NCCc2cc(C(C)(C)C)c(O)c(C(C)(C)C)c2)c(C(C)C)c1` [Beispiel 5.17], the “Stabilisierung von Plasma LDL: Verlängerung d. "lag-Phase" %” value in the experiment with Plasma-LDL stood at 50%. For the same compound, the inhibition at 10 µM with P 388 D.1 Makrophagen is 78%.
For the compound `CCCCS(=O)(=O)NCCCc1cc(C(C)(C)C)c(O)c(C(C)(C)C)c1` [Beispiel 5.19], the inhibition at 10 µM with P 388 D.1 Makrophagen amounted to 43.8%.
For `CC(C)(C)c1cc(CCNS(=O)(=O)c2ccc(F)cc2)cc(C(C)(C)C)c1O` [Beispiel 5.28, 2-[4-Fluorbenzolsulfo-(3,5-di-tert.butyl-4-hydroxy)]-phenethylamid], the “Stabilisierung von Plasma LDL: Verlängerung d. "lag-Phase" %” value in the experiment on Plasma-LDL is 25%. The S-Cholesterin in experiment [1] (5 mg/kg/d by gavage in 2 ml Pflanzenöl) is given as 187 +/- 23 mg %; in experiment [1] (15 mg/kg/d by gavage in 2 ml Pflanzenöl), 120 +/- 15 mg %; in experiment [1] (50 mg/kg/d by gavage in 2 ml Pflanzenöl), 114 +/- 14 mg %; in experiment [1] (100 mg/kg/d by gavage in 2 ml Pflanzenöl), 84 +/- 8 mg %. Moreover, the “% Kontrollen” value is 75% in experiment [1] (5 mg/kg/d), 48% in experiment [1] (15 mg/kg/d), 46% in experiment [1] (50 mg/kg/d) and 33% in experiment [1] (100 mg/kg/d). Besides, the inhibition at 10 µM in the experiment with P 388 D.1 Makrophagen turned out to be 92.6%. In addition, the IC50 with P 388 D.1 Makrophagen worked out at 1200 nM.
In the case of `CC(Cc1cc(C(C)(C)C)c(O)c(C(C)(C)C)c1)NS(=O)(=O)C(C)C` (stereo not drawn) [Beispiel 5.31], the “Stabilisierung von Plasma LDL: Verlängerung d. "lag-Phase" %” value with Plasma-LDL amounted to 18%. In the experiment with P 388 D.1 Makrophagen, the inhibition at 10 µM stood at 33.9%.
With `CC(C)(Sc1cc(C(C)(C)C)c(O)c(C(C)(C)C)c1)Sc1cc(C(C)(C)C)c(O)c(C(C)(C)C)c1` [Probucol, reference compound], the “Stabilisierung von Plasma LDL: Verlängerung d. "lag-Phase" %” value in the experiment with Plasma-LDL was found to be 10%. In addition, the “Hemmung der Cholesterbildung” value in the experiment with P 388 D.1 Makrophagen (reference substance at 10 »M, n=7, printed as positive inhibition) was 25-42%.
